# Like-named read-outs stand apart in the source and are kept apart here.
# How the values were obtained:
# CDK4/D3 = CDK4/D3 (Homo sapiens (Human), UniProt P11802); experiment: CDKs inhibition assay (ADP-Glo Kinase Assay), CDK4; details: for selectivity for CDK4/6 (over CDK1) compared with the control compound LY2835219: in words; for Ratio IC50 (CDK4)/IC50 (CDK1): smaller value = better selectivity for CDK4
# Description: (2) Preparation of Test Compound:
# (§1) a. Test compounds at a certain concentration were taken respectively, and diluted with kinase reaction buffer I to compound solutions with a final concentration of 50 μM;
# (§2) 4. Preparation of reaction substrate and ATP mixed solution:
# a. Preparation of ATP solution:
# (§3) 200 μl of 0.1 mM ATP solution: 2 μl of 10 mM ATP was added into 198 μl kinase reaction buffer I;
# (§4) 300 μl of 50 μl M ATP solution: 150 μl kinase reaction buffer I was added into 150 μl of above-mentioned 0.1 mM ATP solution;
# (§5) b. Preparation of 300 μl reaction substrate solution:
# (§6) 150 μl of 1 μg/μl reaction substrate stock solution was added into 150 μl kinase reaction buffer I and uniformly mixed;
# (§7) c. Above-mentioned a/b solutions were mixed to obtain mixed solutions respectively.
# (§8) 2 μl compound solution at each concentration was added into a 384-well plate respectively, and centrifuged for 3 min;
# (§9) 4 μl kinase solution was added into each well, centrifuged at 5000 rpm for 10 min at 18° C., and shaked well for 10 min on a shaker;
# (§10) 4 μl substrate and ATP mixed solution were added into each well, centrifuged at 5000 rpm for 10 min at 18° C., and shaked well for 90 min on a shaker at 37° C.;
# (§11) The 384 well plate was removed and allow to achieve room temperature;
# (§12) 10 μl ADP-Glo reagent was added into each well, centrifuged at 5000 rpm for 10 min at 18° C., and shaked well for 40 min on a shaker at 25° C. to terminate the reaction;
# (§13) 20 μl kinase assay reagent was added into each well, centrifuged at 5000 rpm for 10 min at 18° C., and shaked well for 30 min on a shaker at 25° C.;
# (§14) Fluorescence values were read by M1000pro microplate reader.
# (§15) The inhibition rate of each compound at each concentration point was calculated according to the following equation, and IC50 value was calculated by curve fitting using GraphPad Prism 5 software.
# [1] = test system: human breast cancer cell line MDB-MA-231; experiment: Proliferation inhibition assay on human breast cancer cell line MDA-MB-231 (DAPI staining, In Cell Analyzer); format: cell-based
# Description: Experimental Preparation:
# 1. MDA-MB-231 cells were seeded at 4000 cells/100 ul/well to a 96-well plate with black transparent bottom, and cultured overnight at 37° C.;
# 3. Fixation: the cell plate was taken, medium was removed, and 50 μl of 4% paraformaldehyde was added to each well and fixed 10 min;
# 4.50 μl 0.1 M glycine was added to neutralize for 10 min;
# 6. Permeabilization: 50 ul of 0.2% TritonX-100 was added to each well and permeabilized at room temperature for 10 min;
# 8.5 mg/mL DAPI stock solution was diluted at 1:5000 (final concentration 1 μg/ml) and the cells were stained at room temperature for 20 min.
# 10. The plate was scanned and analyzed on In cell analyser.
# CDK6/D3 = CDK6/D3 (Homo sapiens (Human), UniProt Q00534); experiment: CDKs inhibition assay (ADP-Glo Kinase Assay), CDK6; details: for Ratio IC50 (CDK6)/IC50 (CDK1): smaller value = better selectivity for CDK6
# Description: (2) Preparation of Test Compound:
# as §1, §2
# a. Preparation of ATP solution:
# as §3, §4, §5, §6, §7, §8, §9, §10, §11, §12, §13, §14, §15
# CDK1/A2 = CDK1/A2 (Homo sapiens (Human), UniProt P06493); experiment: CDKs inhibition assay (ADP-Glo Kinase Assay), CDK1; details: read-out: IC50 (nM) CDK1/A2
# Description: (2) Preparation of Test Compound:
# as §1, §2
# a. Preparation of ATP solution:
# as §3, §4, §5, §6, §7, §8, §9, §10, §11, §12, §13, §14, §15
# [2] = MDA-MB-231, 72 h, read-out: IC50 for inhibition of proliferation of human breast cancer cell line MDB-MA-231
# [3] = MDA-MB-231, read-out: IC50 for inhibition of proliferation of human breast cancer cell line MDB-MA-231, 72 h incubation
IC50 (CDK4/D3) [nM],IC50 (CDK6/D3) [nM],"IC50 [1, 3] [nM]",SMILES,further results
17.6,368,3650,"CC1Cc2nc3c(F)cc(-c4nc(Nc5ccc(N6CCNCC6)cn5)ncc4F)cc3n2C1 (stereo not shown) [Example 50, 5-Fluoro-4-(5-fluoro-2-methyl-2,3-dihydro-1H-benzo[d]pyrrolo[1,2-a]imidazol-7-yl)-N-(5-(piperazin-1-yl)pyridin-2-yl)pyrimidin-2-amine]",
60.7,144,1680,"CCC1Cc2nc3c(F)cc(-c4nc(Nc5ccc(N6CCNCC6)cn5)ncc4F)cc3n2C1 (stereo not shown) [Example 52, 4-(2-Ethyl-5-fluoro-2,3-dihydro-1H-benzo[d]pyrrolo[1,2-a]imidazol-7-yl)-5-fluoro-N-(5-(piperazin-1-yl)pyridin-2-yl)pyrimidin-2-amine]",
19,9.6,252,"CCC1CCc2nc3c(F)cc(-c4nc(Nc5ccc(N6CCNCC6)cn5)ncc4F)cc3n21 (stereo not shown) [Example 54, 4-(1-Ethyl-5-fluoro-2,3-dihydro-1H-benzo[d]pyrrolo[1,2-a]imidazol-7-yl)-5-fluoro-N-(5-(piperazin-1-yl)pyridin-2-yl)pyrimidin-2-amine]",
28,47.3,458,"CC1CCc2nc3c(F)cc(-c4nc(Nc5ccc6c(n5)CCN(C(=O)CO)C6)ncc4F)cc3n21 (stereo not shown) [Example 58, 1-(2-((5-Fluoro-4-(5-fluoro-1-methyl-2,3-dihydro-1H-benzo[d]pyrrolo[1,2-a]imidazol-7-yl)pyrimidin-2-yl)amino)-7,8-dihydro-1,6-naphthyridin-6(5H)-yl)-2-hydroxyethan-1-one]",
3.9,80,1530,CC1CCc2nc3c(F)cc(-c4nc(Nc5ccc(C6CCNCC6)cn5)ncc4F)cc3n21 (stereo not shown) [Example 61],
1.7,34,1320,"Cc1nc(Nc2ncc(F)c(-c3cc(F)c4nc5n(c4c3)C(C)CC5)n2)ccc1CC1CCNCC1 (stereo not shown) [Example 62, 5-Fluoro-4-(5-fluoro-1-methyl-2,3-dihydro-1H-benzo[d]pyrrolo[1,2-a]imidazol-7-yl)-N-(6-methyl-5-(piperidine-4-methylene)pyridin-2-yl)pyrimidin-2-amine]",
4.3,21.4,,CC1CCc2nc3c(F)cc(-c4nc(Nc5ccc(C6CCN(C)CC6)cn5)ncc4F)cc3n21 (stereo not shown) [Example 66],
9,6,,"CCC1CCc2nc3c(F)cc(-c4nc(Nc5ccc(C6CCN(C)CC6)cn5)ncc4F)cc3n21 (stereo not shown) [Example 68, 4-(1-Ethyl-5-fluoro-2,3-dihydro-1H-benzo[d]pyrrolo[1,2-a]imidazolel-7-yl)-5-fluoro-N-(5-(1-methylpiperidine-4-yl)pyridin-2-yl)pyrimidin-2-amine]",
40,24.4,,"CCN1CCC(c2ccc(Nc3ncc(F)c(-c4cc(F)c5nc6n(c5c4)C(C)CC6)n3)nc2)CC1 (stereo not shown) [Example 69, N-(5-(1-Ethylpiperidine-4-yl)pyridin-2-yl)-5-fluoro-4-(5-fluoro-1-methyl-2,3-dihydro-1H-benzo[d]pyrrolo[1,2-a]imidazol-7-yl)pyrimidin-2-amine]",
1,14,46,"CN(C)C1CCN(c2ccc(Nc3ncc(F)c(-c4cc(F)c5nc6n(c5c4)C(C)(C)CC6)n3)nc2)CC1 [Example 71, N-(5-(4-(Dimethylamino)piperidine-1-yl)pyridin-2-yl)-5-fluoro-4-(5-fluoro-1,1-dimethyl-2,3-dihydro-1H-benzo[d]pyrrolo[1,2-a]imidazol-7-yl)pyrimidin-2-amine]",

# Second part, the compound before the results:
SMILES,IC50 (CDK4/D3) [nM],IC50 (CDK6/D3) [nM],"IC50 [1, 3] [nM]",further results
"Fc1cnc(Nc2ccc(N3CCNCC3)cn2)nc1-c1cc(F)c2nc3n(c2c1)CCCC3 [Example 13, 5-Fluoro-4-(6-fluoro-1,2,3,4-tetrahydrobenzo[4,5]imidazo[1,2-a]pyridin-8-yl)-N-(5-(piperazin-1-yl)pyridin-2-yl)pyrimidin-2-amine]",18,62.7,,"IC50 [1, 2]: 1170 nM"
"O=C(CO)N1CCc2nc(Nc3ncc(F)c(-c4cc(F)c5nc6n(c5c4)CCCC6)n3)ccc2C1 [Example 15, 1-(2-((5-Fluoro-4-(6-fluoro-1,2,3,4-tetrahydrobenzo[4,5]imidazo[1,2-a]pyridin-8-yl)pyrimidin-2-yl)amino)-7,8-dihydro-1,6-naphthyridin-6(5H)-yl)-2-hydroxyethan-1-one]",28,68.6,,"IC50 [1, 2]: 1230 nM"
"CC1(C)CCc2nc3c(F)cc(-c4nc(Nc5ccc6c(n5)CCN(C(=O)CO)C6)ncc4F)cc3n21 [Example 21, 1-(2-((5-Fluoro-4-(5-fluoro-1,1-dimethyl-2,3-dihydro-1H-benzo[d]pyrrolo[1,2-a]imidazol-7-yl)pyrimidin-2-yl)amino)-7,8-dihydro-1,6-naphthyridin-6(5H)-yl)-2-hydroxyethan-1-one]",,17.6,,
"CC1(C)CCc2nc3c(F)cc(-c4ccnc(Nc5ccc(N6CCNCC6)cn5)n4)cc3n21 [Example 23, 4-(5-Fluoro-1,1-dimethyl-2,3-dihydro-1H-benzo[d]pyrrolo[1,2-a]imidazol-7-yl)-N-(5-(piperazin-1-yl)pyridin-2-yl)pyrimidin-2-amine]",,90,543,
CC1(C)CCc2nc3c(F)cc(-c4nc(Nc5ccc(C6CCNCC6)cn5)ncc4F)cc3n21 [Example 26],,,214,
"Cc1nc(Nc2ncc(F)c(-c3cc(F)c4nc5n(c4c3)C(C)(C)CC5)n2)ccc1CC1CCNCC1 [Example 30, 5-Fluoro-4-(5-fluoro-1,1-dimethyl-2,3-dihydro-1H-benzo[d]pyrrolo[1,2-a]imidazol-7-yl)-N-(6-methyl-5-(piperidine-4-ylmethyl)pyridin-2-yl)pyrimidin-2-amine]",1.2,12.2,300,selectivity for CDK4/6 (over CDK1) compared with the control compound LY2835219 (CDK4/D3): better selectivity for CDK4/6 than the control compound; Ratio IC50 (CDK4)/IC50 (CDK1) (CDK4/D3): 0.002; Ratio IC50 (CDK6)/IC50 (CDK1) (CDK6/D3): 0.016; IC50 (CDK1/A2): 744 nM
Cc1nc(Nc2ncc(F)c(-c3cc(F)c4nc5n(c4c3)C(C)(C)CC5)n2)ccc1N1CCNCC1 [Example 31],2,55,129,
"CCN1CCN(C(=O)c2ccc(Nc3ncc(F)c(-c4cc(F)c5nc6n(c5c4)C(C)(C)CC6)n3)nc2)CC1 [Example 32, (4-Ethylpiperazin-1-yl)(6-((5-fluoro-4-(5-fluoro-1,1-dimethyl-2,3-dihydro-1H-benzo[d]pyrrolo[1,2-a]imidazol-7-yl)pyrimidin-2-yl)amino)pyridin-3-yl)methyl ketone]",49,13,579,
"CCN1CCC(Oc2ccc(Nc3ncc(F)c(-c4cc(F)c5nc6n(c5c4)C(C)(C)CC6)n3)nc2)CC1 [Example 33, N-(5-((1-Ethylpiperidine-4-yl)oxy)pyridin-2-yl)-5-fluoro-4-(5-fluoro-1,1-dimethyl-2,3-dihydro-1H-benzo[d]pyrrolo[1,2-a]imidazol-7-yl)pyrimidin-2-amine]",3.2,7.6,20,
"CC1(C)CCc2nc3c(F)cc(-c4nc(Nc5ccc(OC6CCNCC6)cn5)ncc4F)cc3n21 [Example 34, 5-Fluoro-4-(5-fluoro-1,1-dimethyl-2,3-dihydro-1H-benzo[d]pyrrolo[1,2-a]imidazol-7-yl)-N-(5-(piperidine-4-yloxy)pyridin-2-yl)pyrimidin-2-amine]",3.9,3.8,35,
"CCN1CCC(c2ccc(Nc3ncc(F)c(-c4cc(F)c5nc6n(c5c4)C(C)(C)CC6)n3)nc2)CC1 [Example 45, N-(5-(1-Ethylpiperidine-4-yl)pyridin-2-yl)-5-fluoro-4-(5-fluoro-1,1-dimethyl-2,3-dihydro-1H-benzo[d]pyrrolo[1,2-a]imidazol-7-yl)pyrimidin-2-amine]",7,21.7,,"IC50 [1, 2]: 30 nM"
"C[C@H]1CN(Cc2ccc(Nc3ncc(F)c(-c4cc(F)c5nc6n(c5c4)C(C)(C)CC6)n3)nc2)CCN1C [Example 47, (S)—N-(5-((3,4-Dimethylpiperazin-1-yl)methyl)pyridin-2-yl)-5-fluoro-4-(5-fluoro-1,1-dimethyl-2,3-dihydro-1H-benzo[d]pyrrolo[1,2-a]imidazol-7-yl)pyrimidin-2-amine]",2.4,3,,selectivity for CDK4/6 (over CDK1) compared with the control compound LY2835219 (CDK4/D3): better selectivity for CDK4/6 than the control compound; Ratio IC50 (CDK4)/IC50 (CDK1) (CDK4/D3): 0.003; Ratio IC50 (CDK6)/IC50 (CDK1) (CDK6/D3): 0.004; IC50 (CDK1/A2): 745 nM
"CC1(C)Cc2nc3c(F)cc(-c4nc(Nc5ccc(N6CCNCC6)cn5)ncc4F)cc3n2C1 [Example 55, 5-Fluoro-4-(5-fluoro-2,2-dimethyl-2,3-dihydro-1H-benzo[d]pyrrolo[1,2-a]imidazol-7-yl)-N-(5-(piperazin-1-yl)pyridin-2-yl)pyrimidin-2-amine]",,,,IC50 (CDK1/A2): 6240 nM
"CC1CCc2nc3c(F)cc(-c4ccnc(Nc5ccc(N6CCNCC6)cn5)n4)cc3n21 (stereo not shown) [Example 72, 4-(5-Fluoro-1-methyl-2,3-dihydro-1H-benzo[d]pyrrolo[1,2-a]imidazol-7-yl)-N-(5-(piperazin-1-yl)pyridin-2-yl)pyrimidin-2-amine]",,,,IC50 (CDK1/A2): 693 nM
